Source: patent publication US10202390B2, “Heteroaryl substituted aminopyridine compounds” (BRISTOL-MYERS SQUIBB COMPANY, priority 2015, dated 2019)

Molecular target: IRAK4 (Homo sapiens (Human), UniProt Q9NWZ3)
Experiment: IRAK4 Inhibition Assay
Assay type: biochemical
Conditions: ATP 500 μM; IRAK4 0.6 nM; 60 min room temperature
Procedure: The assays were performed in U-bottom 384-well plates. The final assay volume was 30 μL prepared from 15 μL additions of enzyme and substrates (fluoresceinated peptide and ATP) and test compounds in assay buffer (20 mM HEPES pH 7.2, 10 mM MgCl2, 0.015% Brij 35 and 4 mM DTT). The reaction was initiated by the combination of IRAK4 with substrates and test compounds. The reaction mixture was incubated at room temperature for 60 min. and terminated by adding 45 μL of 35 mM EDTA to each sample. The reaction mixture was analyzed on the Caliper LABCHIP® 3000 (Caliper, Hopkinton, Mass.) by electrophoretic separation of the fluorescent substrate and phosphorylated product. Inhibition data were calculated by comparison to no enzyme control reactions for 100% inhibition and vehicle-only reactions for 0% inhibition. The final concentrations of reagents in the assays are ATP, 500 μM; FL-IPTSPITTTYFFFKKK peptide 1.5 μM; IRAK4, 0.6 nM; and DMSO, 1.6%.

Chain of IRAK4 (Q9NWZ3 whole entry): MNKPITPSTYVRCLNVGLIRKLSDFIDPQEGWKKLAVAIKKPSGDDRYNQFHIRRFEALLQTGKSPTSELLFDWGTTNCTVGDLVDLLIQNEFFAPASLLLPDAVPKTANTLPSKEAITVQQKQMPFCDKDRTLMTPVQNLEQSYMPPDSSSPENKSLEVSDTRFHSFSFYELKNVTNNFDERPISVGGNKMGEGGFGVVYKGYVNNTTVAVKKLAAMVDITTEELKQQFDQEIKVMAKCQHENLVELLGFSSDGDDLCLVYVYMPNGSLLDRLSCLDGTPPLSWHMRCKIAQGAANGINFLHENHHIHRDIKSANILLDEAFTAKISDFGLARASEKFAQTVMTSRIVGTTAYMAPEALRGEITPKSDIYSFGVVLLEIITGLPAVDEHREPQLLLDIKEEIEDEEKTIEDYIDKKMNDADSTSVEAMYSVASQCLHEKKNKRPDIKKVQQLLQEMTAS

| Compound | IC50 [nM] |
| --- | --- |
| CCCn1cc(-c2cnc(-c3cnc4cc(Cl)cnn34)cc2NC(C)C)nn1 [Example 20, 2-(7-chloroimidazo[1,2-b]pyridazin-3-yl)-N-isopropyl-5-(1-propyl-1H-1,2,3-triazol-4-yl)pyridin-4-amine] | 12 |
| CC(C)(O)CCc1cn(-c2cnc(-c3cnn4cc(C#N)cnc34)cc2NC2CC(F)(F)C2)nn1 [Example 24, 3-(4-((3,3-difluorocyclobutyl)amino)-5-(4-(3-hydroxy-3-methylbutyl)-1H-1,2,3-triazol-1-yl)pyridin-2-yl)pyrazolo[1,5-a]pyrimidine-6-carbonitrile] | 14 |
| CC(C)Nc1cc(-c2cnc3cc(C#N)cnn23)ncc1-c1cnn(CC(C)(C)O)c1 [Example 5, 3-(5-(1-(2-hydroxy-2-methylpropyl)-1H-pyrazol-4-yl)-4-(isopropylamino)pyridin-2-yl)imidazo[1,2-b]pyridazine-7-carbonitrile] | 174 |
| CC(C)(O)CCc1cn(-c2cnc(-c3cnn4cc(Cl)cnc34)cc2NC2COC2)nn1 [Example 14, 4-(1-(6-(6-chloropyrazolo[1,5-a]pyrimidin-3-yl)-4-(oxetan-3-ylamino)pyridin-3-yl)-1H-1,2,3-triazol-4-yl)-2-methylbutan-2-ol] | 9 |
| CC(C)Nc1cc(-c2cnc3cc(C#N)cnn23)ncc1-c1cn(C2CCOCC2)nn1 [Example 16, 3-(4-(isopropylamino)-5-(1-(tetrahydro-2H-pyran-4-yl)-1H-1,2,3-triazol-4-yl)pyridin-2-yl)imidazo[1,2-b]pyridazine-7-carbonitrile] | 2 |
| CC(C)Nc1cc(-c2cnc3cc(Cl)cnn23)ncc1-c1cnn(CC(F)(F)F)c1 [Example 7, 2-(7-chloroimidazo[1,2-b]pyridazin-3-yl)-N-isopropyl-5-(1-(2,2,2-trifluoroethyl)-1H-pyrazol-4-yl)pyridin-4-amine] | 53 |
| CC(=O)N1CC(n2cc(-c3cnc(-c4cnc5cc(C#N)cnn45)cc3NC(C)C)nn2)C1 [Example 17, 3-(5-(1-(1-acetylazetidin-3-yl)-1H-1,2,3-triazol-4-yl)-4-(isopropylamino)pyridin-2-yl)imidazo[1,2-b]pyridazine-7-carbonitrile] | 2 |
| CC(C)Nc1cc(-c2cnc3cc(C#N)cnn23)ncc1-c1cnn(CC(F)(F)F)c1 [Example 8, 3-(4-(isopropylamino)-5-(1-(2,2,2-trifluoroethyl)-1H-pyrazol-4-yl)pyridin-2-yl)imidazo[1,2-b]pyridazine-7-carbonitrile] | 43 |
| CCCn1cc(-c2cnc(-c3cnc4cc(C#N)cnn34)cc2Nc2cnn(CC(F)F)c2)cn1 [Example 10, 3-(4-((1-(2,2-difluoroethyl)-1H-pyrazol-4-yl)amino)-5-(1-propyl-1H-pyrazol-4-yl)pyridin-2-yl)imidazo[1,2-b]pyridazine-7-carbonitrile] | 20 |
| CC(C)Nc1cc(-c2cnc3cc(Cl)cnn23)ncc1-c1cnn(CC(C)(C)O)c1 [Example 4, 1-(4-(6-(7-chloroimidazo[1,2-b]pyridazin-3-yl)-4-(isopropylamino)pyridin-3-yl)-1H-pyrazol-1-yl)-2-methylpropan-2-ol] | 396 |
| CCCn1cc(-c2cnc(-c3cnc4cc(Cl)cnn34)cc2Nc2cnn(CC(F)F)c2)cn1 [Example 9, 2-(7-chloroimidazo[1,2-b]pyridazin-3-yl)-N-(1-(2,2-difluoroethyl)-1H-pyrazol-4-yl)-5-(1-propyl-1H-pyrazol-4-yl)pyridin-4-amine] | 29 |
| CC(C)Nc1cc(-c2cnn3cc(C#N)cnc23)ncc1-n1cc(C(C)(C)O)cn1 [Example 1, 3-(5-(4-(2-hydroxypropan-2-yl)-1H-pyrazol-1-yl)-4-(isopropylamino)pyridin-2-yl) pyrazolo[1,5-a]pyrimidine-6-carbonitrile] | 578 |

Test system: Human whole blood
Experiment: IRAK4 Whole Blood Assay (TLR2 agonist lipoteichoic acid induced IL-6)
Assay type: cell-based
Conditions: 10 μg/mL lipoteichoic acid (TLR2 agonist), 5 hours, IL-6 levels
Procedure: Human whole blood containing the anti-coagulant ACD-A was plated in 384-well plate (25 μL/well) and incubated with compounds for 60 minutes at 37° C. in a 5% CO2 incubator. The blood was stimulated with a TLR2 agonist, 10 μg/mL final concentration of lipoteichoic acid (Invivogen, San Diego, Calif.) in 25 μL RPMI (Gibco) for 5 hours in a 5% CO2 incubator. At the end of the incubation, plates were centrifuged at 2300 rpm for 5 minutes. Supernatants were harvested and analyzed for IL-6 levels by Flow Cytometry beads assay (BD Biosciences, San Jose, Calif.).

| Compound | EC50 [nM] |
| --- | --- |
| CC(C)(O)CCc1cn(-c2cnc(-c3cnn4cc(C#N)cnc34)cc2NC2CC(F)(F)C2)nn1 [Example 24, 3-(4-((3,3-difluorocyclobutyl)amino)-5-(4-(3-hydroxy-3-methylbutyl)-1H-1,2,3-triazol-1-yl)pyridin-2-yl)pyrazolo[1,5-a]pyrimidine-6-carbonitrile] | 780 |
| CC(C)(O)CCc1cn(-c2cnc(-c3cnn4cc(Cl)cnc34)cc2NC2COC2)nn1 [Example 14, 4-(1-(6-(6-chloropyrazolo[1,5-a]pyrimidin-3-yl)-4-(oxetan-3-ylamino)pyridin-3-yl)-1H-1,2,3-triazol-4-yl)-2-methylbutan-2-ol] | 820 |
| CC(C)(O)CCc1cn(-c2cnc(-c3cnn4cc(C#N)cnc34)cc2NC2COC2)nn1 [Example 26, 3-(5-(4-(3-hydroxy-3-methylbutyl)-1H-1,2,3-triazol-1-yl)-4-(oxetan-3-ylamino)pyridin-2-yl)pyrazolo[1,5-a]pyrimidine-6-carbonitrile] | 160 |
